# Patent US8088775B2, “Pharmaceutical composition for treating hair loss” (priority 2004, dated 2012)
# “And” between values parts separate entries of the source, which are not always exact repeats. Equal values may be shown once. Where a name gives a salt, the structure may show the parent alone. Read-outs that look alike come from different tables or passages of the source.
# Legend:
# hair loss [1] = conditions: external application; cited from earlier work
# [2] = system: prostate glands of castrated male SD rats; assay: Anti-androgenic active effects in castrated male SD rats: weight of prostate glands after TP or DHTP inducement; type: in vivo; conditions: for Average weight of prostate glands, prostatic hyperplasia inducement group: hormone alone hypodermic (TP 10 μg or DHTP 20 μg) + vehicle oral; for Average weight of prostate glands, prostatic hyperplasia inducement group / Average weight of prostate glands: one week, solvent control 23.3±1.5 mg; for Weight of prostate glands after inducement with DHTP / Size of prostate glands enlarged by inducement with TP: one week oral
# Description: In-Vivo Experiment for the Observation of Anti-Androgenic Active Effects of Castrated Male SD Rats (1)
# (§1) Each compound is administered orally continuously for one week according to the method of administration shown in Table 1, prostate glands are removed from the rats in each group while watching, and their weights are measured.
# [3] = Body weight of castrated male SD rats after one week; conditions: hormone alone (TP 10 μg or DHTP 20 μg) + vehicle oral, solvent control 122.1
# Description: as §1
# [4] = system: prostate glands of normal male SD rats; assay: Anti-androgenic effects in normal male SD rats: weight of prostate glands after 2 weeks; type: in vivo; conditions: oral; for Average weight of prostate glands: normal 8-week-old male SD rats, solvent control 333.8; for Weight of prostate glands versus solvent control group: normal male SD rats
# Description: In-Vivo Experiment for the Observation of Anti-Androgenic Effects of Normal Male SD Rats (2)
# After the experiments are completed, the changes in the weight of prostate glands removed from normal SD rats and the changes in the weight of normal SD rats measured are shown in Tables 4 and 5 and diagrammatized in FIGS. 3 and 4.
# hair loss [5] = conditions: for Degree of efficacy: 10-20% (number of persons) / Degree of efficacy: 20-40% (number of persons) / Degree of efficacy: 40-60% (number of persons) / Degree of efficacy: 60-80% (number of persons) / Degree of efficacy: Greater than 90% (number of persons) / Degree of efficacy: No effect (number of persons) / Time taken for the efficacy to be shown: 3-5 days (number of persons) / Time taken for the efficacy to be shown: 7 days (number of persons) / Time taken for the efficacy to be shown: 14 days (number of persons) / Time taken for the efficacy to be shown: 21 days (number of persons) / Time taken for the efficacy to be shown: 28 days (number of persons) / Time taken for the efficacy to be shown: Minor effect (number of persons): Example 3 primary specimens, extruded material, 10 mg effective component once a day
# Description: Clinical Experiment to Study Effects for the Prevention of Hair Loss, and for Hair Toning and Hair Growth (1)
# The extruded material thus obtained is dried in the floating air layer. The therapeutical efficacy for the prevention of hair loss is experimented clinically by using thus obtained extruded material as shown in Tables 6 and 7. The objects of clinical experiments are selected based on 35 male and female healthy adults older than 20 years old who suffer from symptoms of hair loss. The therapeutical efficacy of female hair loss is also tested as females suffering from hair loss are included in the specimen population (including 5 males in the placebo control group).
# hair loss [6] = system: hair loss
# Description: Clinical Experiment to Study Effects for the Prevention of Hair Loss, and for Hair Toning and Hair Growth (2)
# The effect for the prevention of hair loss is investigated by administering the tablets thus manufactured to 20 healthy adult males who are older than 20 years old and selected to be specimens (including 5 males in the placaebo control group) once a day.
# hair loss [7] = conditions: for Degree of efficacy: 10-20% (number of persons) / Degree of efficacy: 20-40% (number of persons) / Degree of efficacy: 40-60% (number of persons) / Degree of efficacy: 60-80% (number of persons) / Degree of efficacy: Greater than 90% (number of persons) / Degree of efficacy: No effect (number of persons) / Time taken for the efficacy to be shown: 3-5 days (number of persons) / Time taken for the efficacy to be shown: 7 days (number of persons) / Time taken for the efficacy to be shown: 14 days (number of persons) / Time taken for the efficacy to be shown: 21 days (number of persons) / Time taken for the efficacy to be shown: 28 days (number of persons) / Time taken for the efficacy to be shown: Minor effect (number of persons): Example 5 tertiary specimens, tablets three times a day (30 mg=3×10 mg)
# Description: Clinical Experiment to Study Effects for the Prevention of Hair Loss, and for Hair Toning and Hair Growth (3)
# The effects for the prevention of hair loss are investigated by administering the tablets thus manufactured to 5 healthy adult males who are older than 20 years old and selected to be specimens three times a day (30 mg=3×10 mg).
# hairs = conditions: Example 6; tablets 10 mg once a day for six months; FIG. 5A/5B
# Description: Clinical Experiments to Study Effects of Epilation
# The effects of epilation are investigated by administering the tablets thus manufactured once a day.
# [8] = Example 3, 10 mg once a day, no effects with placebo
# [9] = Example 4 secondary specimens, Total, tablets, 10 mg effective component once a day
smiles,measurement,setting,value
"Nc1cc(N2CCCCC2)nc(N)[n+]1[O-] [Minoxidil, 6-(1-piperidinyl-2,4-pyrimidineamine-3-oxide)]",Reported side effects,hair loss [1],"contact dermatitis, dried mouth, lowering of blood pressure, dizziness"
"CCC(=O)O[C@H]1CC[C@H]2[C@@H]3CCC4=CC(=O)CC[C@]4(C)[C@H]3CC[C@]12C [TP, testosterone propionate]","Average weight of prostate glands, prostatic hyperplasia inducement group",[2],63.6 ± 3.2 mg and 63.6 mg
"CCC(=O)O[C@H]1CC[C@H]2[C@@H]3CC[C@H]4CC(=O)CC[C@]4(C)[C@H]3CC[C@]12C [DHTP, dihydrotestosterone propionate]","Average weight of prostate glands, prostatic hyperplasia inducement group",[2],58.4 ± 2.0 mg and 58.4 mg
same,"Average body weight, inducement group",[3],118.7
"O=C(O)COCCN1CCN(C(c2ccccc2)c2ccc(Cl)cc2)CC1 (centres unmarked) [composition of the present invention, 2-[2-[4-[(4-chlorophenyl)phenylmethyl]-1-piperazinyl]ethoxy]-acetic acid dihydrochloride]",Average weight of prostate glands,"[2]; DHTP 20 μg hypodermic + drug oral daily (finasteride 0.5 mg, composition 5 mg), dihydrochloride",52.2 ± 1.1 mg and 52.2 mg
same,Weight of prostate glands after inducement with DHTP,[2],not greatly affected
same,Average weight of prostate glands,"[2]; TP 10 μg hypodermic + drug oral daily (finasteride 0.5 mg, composition 5 mg), dihydrochloride",25.1 mg
same,Size of prostate glands enlarged by inducement with TP,[2],reduced to the normal size
same,Average weight of prostate glands,[4],226.7 mg
same,Weight of prostate glands versus solvent control group,[4],significantly lower
same,"Effect of prevention of hair loss, time course",hair loss [5]; [8],hair loss is prevented in almost all specimens in about three weeks
same,Effects of the prevention of hair loss in males and females,hair loss [5]; [8],remarkable effects of the prevention of hair loss are observed both in males and females
same,Degree of efficacy: 10-20% (number of persons),hair loss [5]; Female (10),0
same,Degree of efficacy: 20-40% (number of persons),hair loss [5]; Female (10),0
same,Degree of efficacy: 40-60% (number of persons),hair loss [5]; Female (10),3
same,Degree of efficacy: 60-80% (number of persons),hair loss [5]; Female (10),6
same,Degree of efficacy: Greater than 90% (number of persons),hair loss [5]; Female (10),0
same,Degree of efficacy: No effect (number of persons),hair loss [5]; Female (10),1
same,Time taken for the efficacy to be shown: 3-5 days (number of persons),hair loss [5]; Female (10),0
same,Time taken for the efficacy to be shown: 7 days (number of persons),hair loss [5]; Female (10),1
same,Time taken for the efficacy to be shown: 14 days (number of persons),hair loss [5]; Female (10),6
same,Time taken for the efficacy to be shown: 21 days (number of persons),hair loss [5]; Female (10),2
same,Time taken for the efficacy to be shown: 28 days (number of persons),hair loss [5]; Female (10),0
same,Time taken for the efficacy to be shown: Minor effect (number of persons),hair loss [5]; Female (10),1
same,Degree of efficacy: 10-20% (number of persons),hair loss [5]; Male (20),0
same,Degree of efficacy: 20-40% (number of persons),hair loss [5]; Male (20),0
same,Degree of efficacy: 40-60% (number of persons),hair loss [5]; Male (20),6
same,Degree of efficacy: 60-80% (number of persons),hair loss [5]; Male (20),13
same,Degree of efficacy: Greater than 90% (number of persons),hair loss [5]; Male (20),1
same,Degree of efficacy: No effect (number of persons),hair loss [5]; Male (20),0
same,Time taken for the efficacy to be shown: 3-5 days (number of persons),hair loss [5]; Male (20),0
same,Time taken for the efficacy to be shown: 7 days (number of persons),hair loss [5]; Male (20),6
same,Time taken for the efficacy to be shown: 14 days (number of persons),hair loss [5]; Male (20),11
same,Time taken for the efficacy to be shown: 21 days (number of persons),hair loss [5]; Male (20),3
same,Time taken for the efficacy to be shown: 28 days (number of persons),hair loss [5]; Male (20),0
same,Time taken for the efficacy to be shown: Minor effect (number of persons),hair loss [5]; Male (20),0
same,Degree of efficacy: 10-20% (number of persons),hair loss [5]; Total,0
same,Degree of efficacy: 20-40% (number of persons),hair loss [5]; Total,0
same,Degree of efficacy: 40-60% (number of persons),hair loss [5]; Total,9
same,Degree of efficacy: 60-80% (number of persons),hair loss [5]; Total,19
same,Degree of efficacy: Greater than 90% (number of persons),hair loss [5]; Total,1
same,Degree of efficacy: No effect (number of persons),hair loss [5]; Total,1
same,Time taken for the efficacy to be shown: 3-5 days (number of persons),hair loss [5]; Total,0
same,Time taken for the efficacy to be shown: 7 days (number of persons),hair loss [5]; Total,7
same,Time taken for the efficacy to be shown: 14 days (number of persons),hair loss [5]; Total,17
same,Time taken for the efficacy to be shown: 21 days (number of persons),hair loss [5]; Total,5
same,Time taken for the efficacy to be shown: 28 days (number of persons),hair loss [5]; Total,0
same,Time taken for the efficacy to be shown: Minor effect (number of persons),hair loss [5]; Total,1
same,Color and thickness of newly coming out hairs,"hair loss [6]; Example 4, tablets 10 mg once a day",much stronger than those of old hairs
same,Effects for the prevention of hair loss,"hair loss [6]; Example 4, tablets 10 mg once a day, 15 people, no effects with placebo",superior within three weeks in all of 15 people
same,Degree of efficacy: 10-20% (number of persons),hair loss [6]; [9],0
same,Degree of efficacy: 20-40% (number of persons),hair loss [6]; [9],0
same,Degree of efficacy: 40-60% (number of persons),hair loss [6]; [9],5
same,Degree of efficacy: 60-80% (number of persons),hair loss [6]; [9],9
same,Degree of efficacy: Greater than 90% (number of persons),hair loss [6]; [9],1
same,Degree of efficacy: No effect (number of persons),hair loss [6]; [9],0
same,Time taken for the efficacy to be shown: 3-5 days (number of persons),hair loss [6]; [9],0
same,Time taken for the efficacy to be shown: 7 days (number of persons),hair loss [6]; [9],1
same,Time taken for the efficacy to be shown: 14 days (number of persons),hair loss [6]; [9],6
same,Time taken for the efficacy to be shown: 21 days (number of persons),hair loss [6]; [9],8
same,Time taken for the efficacy to be shown: 28 days (number of persons),hair loss [6]; [9],0
same,Time taken for the efficacy to be shown: Minor effect (number of persons),hair loss [6]; [9],0
same,Color and thickness of newly produced hairs,"hair loss [7]; Example 5, tablets 30 mg a day",much stronger than those of old hairs
same,Effects for the prevention of hair loss,"hair loss [7]; Example 5, tablets 30 mg a day, 5 people",superior within one week in all of 5 people
same,Degree of efficacy: 10-20% (number of persons),hair loss [7]; Male (5),0
same,Degree of efficacy: 20-40% (number of persons),hair loss [7]; Male (5),0
same,Degree of efficacy: 40-60% (number of persons),hair loss [7]; Male (5),0
same,Degree of efficacy: 60-80% (number of persons),hair loss [7]; Male (5),2
same,Degree of efficacy: Greater than 90% (number of persons),hair loss [7]; Male (5),3
same,Degree of efficacy: No effect (number of persons),hair loss [7]; Male (5),0
same,Time taken for the efficacy to be shown: 3-5 days (number of persons),hair loss [7]; Male (5),0
same,Time taken for the efficacy to be shown: 7 days (number of persons),hair loss [7]; Male (5),5
same,Time taken for the efficacy to be shown: 14 days (number of persons),hair loss [7]; Male (5),0
same,Time taken for the efficacy to be shown: 21 days (number of persons),hair loss [7]; Male (5),0
same,Time taken for the efficacy to be shown: 28 days (number of persons),hair loss [7]; Male (5),0
same,Time taken for the efficacy to be shown: Minor effect (number of persons),hair loss [7]; Male (5),0
same,Degree of efficacy: 10-20% (number of persons),hair loss [7]; Total (5),0
same,Degree of efficacy: 20-40% (number of persons),hair loss [7]; Total (5),0
same,Degree of efficacy: 40-60% (number of persons),hair loss [7]; Total (5),0
same,Degree of efficacy: 60-80% (number of persons),hair loss [7]; Total (5),2
same,Degree of efficacy: Greater than 90% (number of persons),hair loss [7]; Total (5),3
same,Degree of efficacy: No effect (number of persons),hair loss [7]; Total (5),0
same,Time taken for the efficacy to be shown: 3-5 days (number of persons),hair loss [7]; Total (5),0
same,Time taken for the efficacy to be shown: 7 days (number of persons),hair loss [7]; Total (5),5
same,Time taken for the efficacy to be shown: 14 days (number of persons),hair loss [7]; Total (5),0
same,Time taken for the efficacy to be shown: 21 days (number of persons),hair loss [7]; Total (5),0
same,Time taken for the efficacy to be shown: 28 days (number of persons),hair loss [7]; Total (5),0
same,Time taken for the efficacy to be shown: Minor effect (number of persons),hair loss [7]; Total (5),0
same,"Effects of epilation (photograph, naked eyes)",hairs,considerable effects of epilation
CC(C)(C)NC(=O)[C@H]1CC[C@H]2[C@@H]3CC[C@H]4NC(=O)C=C[C@]4(C)[C@H]3CC[C@]12C [finasteride],Average weight of prostate glands,"[2]; DHTP 20 μg hypodermic + drug oral daily (finasteride 0.5 mg, composition 5 mg)",53.1 ± 1.4 mg and 53.1 mg
same,Weight of prostate glands after inducement with DHTP,[2],not greatly affected
same,Average weight of prostate glands,"[2]; TP 10 μg hypodermic + drug oral daily (finasteride 0.5 mg, composition 5 mg)",24.5 ± 1.6 mg and 24.5 mg
same,Size of prostate glands enlarged by inducement with TP,[2],reduced to the normal size
same,Average weight of prostate glands,[4],220.0 mg
same,Weight of prostate glands versus solvent control group,[4],significantly lower
